Test results published in a melting point compilation (Tetko et al.; mined from patent text by program, amines drawn as free bases though some values may be those of a salt).

SMILES	melting point [°C]
c1ccc(C(c2ccc3[nH]nnc3c2)n2ccnc2)cc1 (configuration not stated)	179
C[C@@H](c1ccc(F)cc1)N1CCN(c2cc(Oc3cccc4[nH]c(=O)c(N)nc34)ncn2)CC1	294 to 295
O=C(Nc1cccnc1)N1CCN(c2nccc(-c3ccc(F)c(F)c3)n2)CC1	231 to 232
O=C(O)COc1c(Cl)cc(Cl)cc1COc1cccc(OCc2ccc3cc(F)ccc3n2)c1	189 to 190
N#Cc1ccc(C(=O)Nc2cc(C(=O)NCc3ccccc3)ccn2)cc1	180 to 181
CC(C)c1nc2c3c(c(C(=O)N(C)C)cc2n1C)CCC(c1ccccc1)O3 (configuration not stated)	179 to 180
COc1ccc(-c2cc3cc(Cl)cc(Cl)c3o2)cc1	172 to 174
COc1c(C#N)c2c(c3c1OC(C)(C)C3)C(c1ccccc1)=NC(C)(C)C2	166 to 168
COc1cc([N+](=O)[O-])c(Cl)cc1NC(=O)C1CCNCC1	167 to 170
COc1cc2c(Nc3ccc(Sc4nccn4C)c(Cl)c3)c(C#N)cnc2cc1OCCN1CCC(N2CCCC2)CC1	127 to 130
O=C(O)COc1cccc2c1CCc1sc(SC(Cc3ccccc3)c3ccccc3)nc1-2 (configuration not stated)	201 to 204
O=C(O)c1cccc(-c2nc(-c3cccc(C(F)(F)F)c3)cs2)c1	229 to 230
O=C(NCc1ccc2ccccc2c1)C1=C(C(=O)Nc2cc(OC3CCCC3)c(Cl)cc2F)CCCC1	174 to 175
Cc1ccc2c(c1)N=C(N1CCN(C)CC1)c1c(sc3ccccc13)N2	184 to 186
CCCCCCCCOc1ccc(-c2ccc(Br)cc2)cc1	120
CCCc1[nH]c2ccc(OCc3ccc4ccccc4n3)cc2c1CC	91
O=C1CN(c2ccc(I)cc2)S(=O)(=O)N1	191 to 193
CC(=O)NCc1ccc2ccn(C3CCN(CCCCc4ccc(F)cc4)CC3)c2c1	59 to 60
COc1cc(Nc2nccc(-c3sc(-c4cccnc4)nc3C)n2)cc(OC)c1OC	210 to 211
O=C(N[C@H]1CCCNC1=O)c1ccc(F)c(F)c1	202 to 204
O=C1Cn2cncc2CN1Cc1ccc(F)cc1	112 to 114

Continued, values first:

melting point [°C]	SMILES
166	CCOC(=O)c1sccc1S(=O)(=O)NC(=O)Nc1nc(C)nc(OC)n1
159 to 160	COc1cc(C(=O)NS(=O)(=O)c2ccccc2)ccc1CBr
149 to 151	CC(C)[C@H](NC(=O)OC(C)(C)C)C(=O)N[C@H](CCC(=O)OCc1ccccc1)C(N)=O
78 to 80	CCOC(=O)c1c(S(N)=O)c2ccccc2n1CC (configuration not stated)
154	CCOC(=O)c1cn(C)c2cnc3cc(F)c(N4CCN(C(=O)CC(F)(F)F)C(c5ccc(OCc6ccccc6)c(OC)c5)C4)cc3c2c1=O (configuration not stated)
97 to 99	CC(C)(N)COC(=O)CCc1cc(C(C)(C)C)c(O)c(C(C)(C)C)c1
130 to 131	CC(=O)OC1(C)CCC2C(C)(C)CCCC2(C)C1CCC(C)(O)C1CO1 (configuration not stated)
157	O=C(O)[C@H]1CC(=O)N(c2ccc(OCc3cccc(F)c3)cc2)C1
148 to 150	COc1cc(OC)c(-c2cc3ccccc3n2C)cc1C=CC(=O)c1ccc(S(N)(=O)=O)cc1
161 to 162	COc1cccc([C@H]2O[C@H](CC(=O)N[C@H](CCSC)C(=O)O)C(=O)N(CC(C)(C)C)c3ccc(Cl)cc32)c1OC
40	CCCCCC[C@H](C)Oc1ccc(-c2ccc(O)c([N+](=O)[O-])c2)cc1
62 to 65	CC(=O)OCc1c(Br)cccc1Br
101 to 103	CCn1nc(OCCCc2ccc(OCCOC)cc2Oc2ncc(C(F)(F)F)cc2Cl)cc1CCC(=O)O
360 to 361	NC(=O)c1nc(-c2cccc(O)c2)nc2c1[nH]c(=O)n2C1CCCC1
94 to 96	CCOC(=O)C(=NOC)C1=CSCCN1C=O
268 to 272	CC(=O)Nc1nc2c(s1)C(=O)CCC2
